Reference: patent US20260215412A1, “AGROCHEMICAL FORMULATION” (priority 2023, published 2026)
Blank lines part the entries; values can stand above or below the compound they belong to.

Experiments:
[1] = Solubility of pydiflumetofen in solvents suitable for emulsion production; format: physicochemical
Description: The choice of solvent for an agrochemical EC formulation is important and dependent upon the individual active ingredient that is the solute. In addition, the choice of solvent for an emulsifiable concentrate formulation can have an impact on the physical stability, application properties, and biological performance of the agrochemical formulation. In this case the active ingredient is the fungicide pydiflumetofen or 3-difluoromethyl-1-methyl-1H-pyrazole-4-carboxylic acid methoxy-[1-methyl-2-(2,4,6-trichlorophenyl)-ethyl]-amide to give it its IUPAC name (the name “pydiflumetofen” is used herein interchangeably with the IUPAC name 3-difluoromethyl-1-methyl-1H-pyrazole-4-carboxylic acid methoxy-[1-methyl-2-(2,4,6-trichlorophenyl)-ethyl]-amide).

[2] = Emulsion stability / emulsion quality testing upon dilution; format: physicochemical; conditions: for suitability as emulsifier for EC formulations of pydiflumetofen: sole surfactant in the test formulations (solo surfactant screens); for emulsion quality of two-way blends: non-ionic surfactant combined with anionic surfactant B^an in two-way blends
Protocol: Test sample of EC formulations of 3-difluoromethyl-1-methyl-1H-pyrazole-4-carboxylic acid methoxy-[1-methyl-2-(2,4,6-trichlorophenyl)-ethyl]-amide were diluted in standard water samples of known hardness (Table 5) in crow receivers, which were then incubated overnight at 5° C. and 30° C.
Emulsion quality was assessed visually after homogenising the samples through inversion, using a scale of 0 to 5 as shown in Table 7 below.
Further visual assessments were carried out 0.5, 2 and 24 hours post homogenisation and the volume of any cream or oil recorded. After 24 hours, the samples were re-homogenised and number of inversions required for re-emulsification was recorded and the samples were re-incubated at 5 or 30 (as appropriate) and a final visual assessment, including by microscopy was carried out.

Compound: Block copolymer of poyhrdroxystearic acid and polyalkylene glycol [C^ni]
suitability as emulsifier for EC formulations of pydiflumetofen [2]: most promising

Compound: Castor oil ethoxylate [A^ni]
emulsion quality of two-way blends [2]: better quality emulsions overall

Compound: POE (11)-synthetic primary C12/C15 alcohol [B^ni]
emulsion quality of two-way blends [2]: better quality emulsions overall | suitability as emulsifier for EC formulations of pydiflumetofen [2]: most promising

The remaining lines, values ahead:

Solubility of pydiflumetofen at 25° C. % ([1]; solvent Acetophenone): 17.3% | Solubility of pydiflumetofen at 25° C. % ([1]; solvent Dimethyl lactamide): 9.65% | Solubility of pydiflumetofen at 25° C. % ([1]; solvent Dowanol DPM): 3.77% | Solubility of pydiflumetofen at 25° C. % ([1]; solvent Ethyl lactate): 5.74% | Solubility of pydiflumetofen at 25° C. % ([1]; solvent Gamma butyrolactone): 14.7% | Solubility of pydiflumetofen at 25° C. % ([1]; solvent Methyl benzoate): 15.1% | Solubility of pydiflumetofen at 25° C. % ([1]; solvent Octan-1-ol): 0.63% | Solubility of pydiflumetofen at 25° C. % ([1]; solvent Solvesso 200 ND/ULN): 5.85% | Solubility of pydiflumetofen at 25° C. % ([1]; solvent THFA (Tetrahydrofurfuryl acetate)): 9.7% | Solubility of pydiflumetofen at 25° C. % ([1]; solvent Tributyl phosphate): 6.18% | Solubility of pydiflumetofen at 25° C. % ([1]; solvent Triethyl phosphate): 8.82% | Solubility of pydiflumetofen at 25° C. % ([1]; solvent Trimethylcyclohexanone): 10.2%
Compound: CON(C(=O)c1cn(C)nc1C(F)F)C(C)Cc1c(Cl)cc(Cl)cc1Cl (centres unmarked) [pydiflumetofen, 3-difluoromethyl-1-methyl-1H-pyrazole-4-carboxylic acid methoxy-[1-methyl-2-(2,4,6-trichlorophenyl)-ethyl]-amide]

emulsion quality of two-way blends [2]: better quality emulsions overall
Compound: Polyoxyethylene sorbitan monolaurate [D^ni]
